Reference: patent US3984415A, “1-Nitrophenylpyrido [2,3-d] pyrimidine-2,4(1H,3H)-diones” (Hisamitsu Pharmaceutical Co., Inc., priority 1973, dated 1976)
Read-outs that look alike come from different tables or passages of the source.

Legend:
[1] = Anti-inflammatory effect (carrageenin edema of hind paw); assay type: in vivo, Wistar-strain male rats; parameters: anti-inflammatory effect (inhibition percentage of carrageenin edema): scale not given here; conditions: for inhibition in vivo at 10 mg/kg / inhibition in vivo at 20 mg/kg / inhibition in vivo at 50 mg/kg / inhibition in vivo at 100 mg/kg: Rattus norvegicus, po, read-out: anti-inflammatory effect (inhibition percentage of carrageenin edema)
Description: 2. Anti-inflammatory effect
A group of five Wistar-strain male rats (100-150 g) were orally administered with each test compound suspended in 0.5 % tragacanth-saline solution. After 30 minutes 0.5 %-1.0 % carrageenin suspended in the water for injection was injected subcutaneously to a hind paw. After 3 hours the carrageenin edema was measured by volume and the inhibition percentage was determined with respect to the results for the control animals. The inhibition percentages were shown with the notations as follows: […]

[2] = Analgetic effect (acetic acid writhing syndrome); assay type: in vivo, dd-strain male mice; conditions: orally, mice; for ED50: Mus musculus, po, acetic acid writhing
Description: Each test compound suspended in 0.5 % tragacanth-saline solution was orally administered to dd-strain male mice (18-20 g). After one hour 0.6% acetic acid solution was intraperitoneally injected in a volume of 0.1 ml/10 g.

dd-strain male mice = conditions: 72 hours
Description: The lethal dose was estimated from the death of animals 72 hours after administration.

[3] = dose 10 mg/kg, orally, rats, 3 hours
[4] = dose 50 mg/kg, orally, rats, 3 hours

Compound	inhibition in vivo at 10 mg/kg [1, 3] [%]	inhibition in vivo at 20 mg/kg ([1]; orally, rats, 3 hours) [%]	inhibition in vivo at 50 mg/kg [1, 4] [%]	inhibition in vivo at 100 mg/kg ([1]; orally, rats, 3 hours) [%]	ED50 [2] [mg/kg]	acute toxicity (lethal dose) (dd-strain male mice; i.p.) [mg/kg]	acute toxicity (lethal dose) (dd-strain male mice; p.o.) [mg/kg]	anti-inflammatory effect (inhibition percentage of carrageenin edema) [1, 4]	analgetic effect ED50, 95% C.L. ([2]; only the 95% confidential limits are printed) [mg/kg]	inhibition in vivo at 10 mg/kg ([1]; 3 h) [%]	inhibition in vivo at 50 mg/kg ([1]; 3 h) [%]
CCn1c(=O)c2cccnc2n(-c2cccc(C(F)(F)F)c2)c1=O [--C2 H5, reference compound]	46 to 60	46 to 60	> 61	> 61	10	600	665				
CCCn1c(=O)c2cccnc2n(-c2cccc(Br)c2)c1=O [--CH2 CH2 CH3, reference compound]	46 to 60	31 to 45	46 to 60	> 61	20	> 1000					
Cn1c(=O)c2cccnc2n(-c2cccc(Cl)c2)c1=O [--CH3, reference compound]	31 to 45	46 to 60	46 to 60	46 to 60	7.1	> 1000	> 1000				
Cn1c(=O)c2cccnc2n(-c2cccc([N+](=O)[O-])c2)c1=O [Compound 2, 1-(m-nitrophenyl)-3-methylpyrido[2,3-d]pyrimidine-2,4(1H,3H)-dione]	46 to 60	46 to 60	> 61	> 61	0.175						
CCn1c(=O)c2cccnc2n(-c2cccc([N+](=O)[O-])c2)c1=O [Compound 3, 1-(m-nitrophenyl)-3-ethylpyrido[2,3-d]pyrimidine-2,4(1H,3H)-dione]	> 61	> 61	> 61		0.113						
CCCn1c(=O)c2cccnc2n(-c2cccc([N+](=O)[O-])c2)c1=O [Compound 4]	46 to 60	46 to 60	31 to 45	46 to 60	2.6	1000	> 2000				
CC(C)n1c(=O)c2cccnc2n(-c2cccc([N+](=O)[O-])c2)c1=O [Compound 5]	46 to 60	46 to 60	46 to 60	> 61	2.15	> 1000					
CC(C)Cn1c(=O)c2cccnc2n(-c2cccc([N+](=O)[O-])c2)c1=O [Compound 7]		31 to 45	31 to 45	31 to 45	3.1	1000	> 2000				
C=CCn1c(=O)c2cccnc2n(-c2cccc([N+](=O)[O-])c2)c1=O [Compound 9, 1-(m-nitrophenyl)-3-allylpyrido[2,3-d]pyrimidine-2,4(1H,3H)-dione]	> 61	46 to 60	> 61	> 61	2.6		> 2000				
CC(C)=CCn1c(=O)c2cccnc2n(-c2cccc([N+](=O)[O-])c2)c1=O [Compound 10]	31 to 45	31 to 45	> 61	46 to 60	0.43		> 2000				
C#CCn1c(=O)c2cccnc2n(-c2cccc([N+](=O)[O-])c2)c1=O [Compound 12]	46 to 60	46 to 60	46 to 60	> 61	1.15	> 1000	> 2000				
O=c1c2cccnc2n(-c2cccc([N+](=O)[O-])c2)c(=O)n1CCCl [Compound 14]	46 to 60	> 61	46 to 60	> 61	0.19	> 1000	> 2000				
O=c1c2cccnc2n(-c2cccc([N+](=O)[O-])c2)c(=O)n1CCF [Compound 15]	> 61	46 to 60	> 61	46 to 60	~0.01		2000				
O=c1c2cccnc2n(-c2cccc([N+](=O)[O-])c2)c(=O)n1CC(F)(F)F [Compound 16, 1-(m-nitrophenyl)-3-(2,2,2-trifluoroethyl)pyrido[2,3-d]pyrimidine-2,4(1H,3H)-dione]	46 to 60	> 61	46 to 60	46 to 60	1.28	> 1000	> 2000				
O=c1c2cccnc2n(-c2cccc([N+](=O)[O-])c2)c(=O)n1CCO [Compound 18, 1-(m-nitrophenyl)-3-(2-hydroxyethyl)pyrido[2,3-d] pyrimidine-2,4(1H,3H)-dione]			31 to 45	31 to 45	0.42	> 1000	> 2000				
O=c1c2cccnc2n(-c2cccc([N+](=O)[O-])c2)c(=O)n1CCCO [Compound 19]	31 to 45	46 to 60	46 to 60	> 61	~1	> 1000	> 2000				
CC(=O)OCCn1c(=O)c2cccnc2n(-c2cccc([N+](=O)[O-])c2)c1=O [Compound 21]			16 to 30	31 to 45	0.16	> 1000	2000				
CCOCCn1c(=O)c2cccnc2n(-c2cccc([N+](=O)[O-])c2)c1=O [Compound 23]	31 to 45	46 to 60	46 to 60	31 to 45	0.168	> 1000					
O=C(O)Cn1c(=O)c2cccnc2n(-c2cccc([N+](=O)[O-])c2)c1=O [Compound 26]		16 to 30	31 to 45		33	> 1000	> 2000				
CCOC(=O)Cn1c(=O)c2cccnc2n(-c2cccc([N+](=O)[O-])c2)c1=O [Compound 27]	31 to 45	31 to 45	46 to 60	46 to 60	45	1000	> 2000				
O=c1c2cccnc2n(-c2cccc([N+](=O)[O-])c2)c(=O)n1CCc1ccccc1 [Compound 31]				< 15	> 100	> 1000	> 2000				
Cn1c(=O)c2cccnc2n(-c2cccc([N+](=O)[O-])c2)c1=S [Compound 33, 1-(m-nitrophenyl)-3-methyl-2-thio-4-oxo-1,2,3,4-tetrahydropyrido[2,3-d]pyrimidine]	46 to 60					> 1000	> 2000	+ ++	0.23 to 1.55		
CCn1c(=O)c2cccnc2n(-c2cccc([N+](=O)[O-])c2)c1=S [Compound 34]	46 to 60		46 to 60		~0.2	> 1000	> 2000				
CCCn1c(=O)c2cccnc2n(-c2cccc([N+](=O)[O-])c2)c1=S [Compound 35]	16 to 30		16 to 30		~1000	> 1000	> 2000				
O=c1c2cccnc2n(-c2cccc([N+](=O)[O-])c2)c(=O)n1CC1CC1 [O --CH2]	> 61	> 61	> 61	> 61	0.12						
O=c1c2cccnc2n(-c2cccc([N+](=O)[O-])c2)c(=O)n1Cc1ccccc1 [O --Ch2]	31 to 45	46 to 60	46 to 60	> 61	1.7						
CN1C(=O)CN=C(c2ccccc2)c2cc(Cl)ccc21 [diazepam, reference compound]										< 15	16 to 30
CCCCC1C(=O)N(c2ccccc2)N(c2ccccc2)C1=O [phenylbutazone, reference compound]	< 15		31 to 45		290						
